Test results: patent US20240390471A1, “COMPOUNDS AND ADJUVANT FORMULATIONS USEFUL IN PNEUMOCOCCAL VACCINES” (Merck Sharp & Dohme LLC, priority 2023, published 2024)

What was measured:
human TLR7 = target: T1, human TLR7 (Homo sapiens, UniProt Q9NYK1); experiment: Cell-based TLR 7/8 assay, HEK-Blue TLR7 cells (SEAP reporter); conditions: based on Compound concentration only; Compounds formulated as SNEs; read-out: huTLR7 EC50 (converted)
T1 construct: host or cells: HEK-Blue 293 cells expressing human TLR7
T1 sequence (Q9NYK1 27-1049): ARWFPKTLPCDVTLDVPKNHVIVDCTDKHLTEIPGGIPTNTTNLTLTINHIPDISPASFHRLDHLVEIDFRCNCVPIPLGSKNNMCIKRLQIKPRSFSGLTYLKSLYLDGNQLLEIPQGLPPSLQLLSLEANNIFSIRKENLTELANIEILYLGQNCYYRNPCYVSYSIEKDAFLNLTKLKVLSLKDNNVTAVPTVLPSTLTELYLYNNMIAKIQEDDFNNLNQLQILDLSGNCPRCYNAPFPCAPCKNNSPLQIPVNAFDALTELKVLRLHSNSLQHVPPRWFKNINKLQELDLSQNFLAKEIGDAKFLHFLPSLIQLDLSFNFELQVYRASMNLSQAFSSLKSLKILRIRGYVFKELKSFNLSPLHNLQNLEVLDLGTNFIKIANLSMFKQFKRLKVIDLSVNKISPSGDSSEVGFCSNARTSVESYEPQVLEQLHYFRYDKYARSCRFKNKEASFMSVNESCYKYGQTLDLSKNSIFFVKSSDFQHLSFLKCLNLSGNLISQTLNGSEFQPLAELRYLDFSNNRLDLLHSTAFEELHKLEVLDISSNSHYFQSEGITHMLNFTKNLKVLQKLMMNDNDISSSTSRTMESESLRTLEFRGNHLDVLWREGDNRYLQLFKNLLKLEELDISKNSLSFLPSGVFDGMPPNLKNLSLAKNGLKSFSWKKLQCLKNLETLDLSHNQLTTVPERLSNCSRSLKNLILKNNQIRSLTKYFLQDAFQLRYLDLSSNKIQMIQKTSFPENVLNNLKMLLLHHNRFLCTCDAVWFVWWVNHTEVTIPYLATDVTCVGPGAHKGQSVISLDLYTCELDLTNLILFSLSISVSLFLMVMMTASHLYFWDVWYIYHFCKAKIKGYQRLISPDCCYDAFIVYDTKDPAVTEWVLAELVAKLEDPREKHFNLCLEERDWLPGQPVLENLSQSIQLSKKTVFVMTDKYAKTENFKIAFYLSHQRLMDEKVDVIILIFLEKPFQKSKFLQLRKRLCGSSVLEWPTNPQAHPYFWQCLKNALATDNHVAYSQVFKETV
Experimental: (§1) HEK-Blue™ TLR7 and TLR8 cells (InvivoGen) were designed to assess the stimulation of TLR7 and TLR8 by monitoring the activation of NF-κB and AP-1. Compound B-1-SNE samples were diluted 1:2 across an 8-point titration in diluent buffer histidine/PS-20 in a sterile V-bottom plate. 20 μL of samples were transferred to corresponding wells of two flat bottom assay plates. Media was aspirated from HEK-Blue™ human TLR 7 and TLR 8 cells (T-75 flasks) and gently rinsed with pre-warmed (37° C.) DPBS for a total volume of 5 mL/flask. The DPBS was gently removed from the cells and cells were gently manually dislodged and resuspended in 2 mL of DPBS. Cell assay suspensions were then prepared at approximately 2.2×10^5 cells per mL of HEK-Blue™ detection medium (InvivoGen). 180 μL of cell suspension in detection medium was added to each well of the two flat bottom assay plates containing the diluted Compound B-1-SNE samples for a final dilution of sample equaling 1:10 (180 μL of cell suspension in detection medium and 20 μL of sample). The cells were then incubated at 37° C. in 5% CO2 for 20 hrs. The reporter gene, NF-Kb, induces the production of secreted embryonic alkaline phosphatase (SEAP) when stimulated and can be monitored using the vendor supplied SEAP detection kit. SEAP colorimetric changes were read at an absorbance of 640 nm using a SpectroMax Stakmax plate reader. […] EC50 values were calculated based on total Compound B-1-SNE concentration using GraphPad Prism Software and analyzed using agonist vs. response variable slope (four parameters) least squares fit.
(§2) Further to the description in Example 10, a cell-based activation system was used to assess activity of the Compound-formulated nanoemulsion systems, prepared as described in examples, supra. HEK-Blue™ TLR7 and TLR8 cells (InvivoGen) were designed to assess the stimulation of TLR7 and TLR8 by monitoring the activation of NF-κB and AP-1. Compound-SNE samples were diluted 1:2 across an 8-point titration in diluent buffer histidine/PS-20 in a sterile V-bottom plate. 20 μL of samples were transferred to corresponding wells of two flat bottom assay plates. Media was aspirated from HEK-Blue™ human TLR 7 and TLR 8 cells (T-75 flasks) and gently rinsed with pre-warmed (37° C.) DPBS for a total volume of 5 mL/flask. The DPBS was gently removed from the cells and cells were gently manually dislodged and resuspended in 2 mL of DPBS. Cell assay suspensions were then prepared at approximately 2.2×10^5 cells per mL of HEK-Blue™ detection medium (InvivoGen). 180 μL of cell suspension in detection medium was added to each well of the two flat bottom assay plates containing the diluted Compound-SNE samples for a final dilution of sample equaling 1:10 (180 μL of cell suspension in detection medium and 20 μL of sample). The cells were then incubated at 37° C. in 5% CO2 for 20 hrs. The reporter gene, NF-Kb, induces the production of secreted embryonic alkaline phosphatase (SLAP) when stimulated and can be monitored using the vendor supplied SLAP detection kit. SLAP colorimetric changes were read at an absorbance of 640 nm using a SpectroMax Stakmax plate reader. EC50s were calculated based on Compound concentration only, not total Compound-SNE concentration (Table 6) using GraphPad Prism Software and analyzed using agonist vs. response variable slope (four parameters) least squares fit.

human TLR8 = target: T2, human TLR8 (Homo sapiens, UniProt Q9NR97); experiment: Cell-based TLR 7/8 assay, HEK-Blue TLR8 cells (SEAP reporter); conditions: based on Compound concentration only; Compounds formulated as SNEs; read-out: huTLR8 EC50 (converted)
T2 construct: host or cells: HEK-Blue 293 cells expressing human TLR8
T2 sequence (Q9NR97 27-1041): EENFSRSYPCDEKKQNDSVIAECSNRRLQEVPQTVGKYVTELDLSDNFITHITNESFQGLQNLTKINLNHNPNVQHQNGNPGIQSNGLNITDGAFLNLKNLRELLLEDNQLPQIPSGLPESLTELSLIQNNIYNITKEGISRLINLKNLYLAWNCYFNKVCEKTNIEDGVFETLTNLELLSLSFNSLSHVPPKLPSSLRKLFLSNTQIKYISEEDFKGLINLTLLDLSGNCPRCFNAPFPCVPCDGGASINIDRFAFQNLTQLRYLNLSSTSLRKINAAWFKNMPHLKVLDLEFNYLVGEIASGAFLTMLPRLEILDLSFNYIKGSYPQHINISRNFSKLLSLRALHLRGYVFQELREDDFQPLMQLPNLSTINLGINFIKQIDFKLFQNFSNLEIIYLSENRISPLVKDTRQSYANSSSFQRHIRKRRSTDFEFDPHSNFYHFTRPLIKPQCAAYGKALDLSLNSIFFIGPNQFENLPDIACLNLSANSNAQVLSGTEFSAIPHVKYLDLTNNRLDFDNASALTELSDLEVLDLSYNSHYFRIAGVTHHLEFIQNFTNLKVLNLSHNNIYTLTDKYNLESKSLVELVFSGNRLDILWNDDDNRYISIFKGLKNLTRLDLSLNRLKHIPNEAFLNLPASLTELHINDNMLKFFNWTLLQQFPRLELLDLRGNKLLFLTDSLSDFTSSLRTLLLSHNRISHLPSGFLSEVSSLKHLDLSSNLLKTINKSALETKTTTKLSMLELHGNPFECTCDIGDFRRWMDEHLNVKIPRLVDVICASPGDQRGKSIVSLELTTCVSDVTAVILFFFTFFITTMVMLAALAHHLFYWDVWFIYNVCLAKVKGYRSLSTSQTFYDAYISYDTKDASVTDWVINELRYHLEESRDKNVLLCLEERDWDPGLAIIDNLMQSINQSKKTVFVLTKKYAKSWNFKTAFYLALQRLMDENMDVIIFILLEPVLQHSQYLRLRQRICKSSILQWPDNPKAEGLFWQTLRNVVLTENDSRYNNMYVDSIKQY
Experimental: as §1, §2

EC50 (human TLR7)	EC50 (human TLR8)	Compound
0.503 µM	0.163 µM	CCCCCCCC/C=C\CCCCCCCC(=O)NCCCCN(C)Cc1cc(OC)c(Cn2cc3nc(N)nc(NCCCC)c3n2)c(OC)c1 [Compound C-3, N-(4-((4-((5-amino-7-(butylamino)-2H-pyrazolo[4,3-d]pyrimidin-2-yl)methyl)-3,5-dimethoxybenzyl)(methyl)amino)butyl)oleamide]
17.7 µM	5.82 µM	CCCCCCCCCCCCCCCCCC(=O)NCCCNC(=O)N1CCN(c2ccc(Cn3cc4nc(N)nc(NCCCC)c4n3)c(OC)c2)CC1 [Compound D-2, 4-(4-((5-amino-7-(butylamino)-2H-pyrazolo[4,3-d]pyrimidin-2-yl)methyl)-3-methoxyphenyl)-N-(3-stearamidopropyl)piperazine-1-carboxamide]
17.2 µM	155 µM	CCCCC/C=C\C/C=C\CCCCCCCCC(CCCCCCCC/C=C\C/C=C\CCCCC)OC(=O)NCCCCN(C)Cc1cc(OC)c(Cn2cc3nc(N)nc(NCCCC)c3n2)c(OC)c1 [Compound D-1, (6Z,9Z,28Z,31Z)-heptatriaconta-6,9,28,31-tetraen-19-yl (4-((4-((5-amino-7-(butylamino)-2H-pyrazolo[4,3-d]pyrimidin-2-yl)methyl)-3,5-dimethoxybenzyl)(methyl)amino)butyl)carbamate]

More lines, now with the values behind:

Compound	EC50 (human TLR7)	EC50 (human TLR8)
CCCCCCCCCCCCCCCCCC(=O)NCCCCC(=O)N1CC(c2ccc(Cn3cc4nc(N)nc(NCCCC)c4n3)c(OC)c2)C1 [Compound B-7, N-(5-(3-(4-((5-amino-7-(butylamino)-2H-pyrazolo[4,3-d]pyrimidin-2-yl)methyl)-3-methoxyphenyl)azetidin-1-yl)-5-oxopentyl)stearamide]	8.43 µM	3.39 µM
CCCCCCCCCCCCCCCCCC(=O)NC1CC(CC(=O)N2CCN(c3ccc(Cn4cc5nc(N)nc(NCCCC)c5n4)c(OC)c3)CC2)C1 (stereo not shown) [Compound B-13, N-(3-(2-(4-(4-((5-amino-7-(butylamino)-2H-pyrazolo[4,3-d]pyrimidin-2-yl)methyl)-3-methoxyphenyl)piperazin-1-yl)-2-oxoethyl)cyclobutyl)stearamide]	85.9 µM	3.02 µM
CCCCCCCCCCCCCCCCCC(=O)NCCCCC(=O)N1CCN(c2cc(OC)c(Cn3cc4nc(N)nc(NCCCC)c4n3)c(OC)c2)CC1 [Compound A-1, N-(5-(4-(4-((5-amino-7-(butylamino)-2H-pyrazolo[4,3-d]pyrimidin-2-yl)methyl)-3,5-dimethoxyphenyl)piperazin-1-yl)-5-oxopentyl)stearamide]	14.9 µM	5.37 µM
CCCCCCCCCCCCCCCCCC(=O)NCCCCC(=O)N1CCN(c2ccc(Cn3cc4nc(N)nc(NCCCC)c4n3)c(OC)c2)CC1 [Compound B-1, N-(5-(4-(4-((5-amino-7-(butylamino)-2H-pyrazolo[4,3-d]pyrimidin-2-yl)methyl)-3-methoxyphenyl)piperazin-1-yl)-5-oxopentyl)stearamide]	0.837 µM	0.554 µM
CCCCCCCC/C=C\CCCCCCCC(=O)NCCCCC(=O)N1CCN(c2ccc(Cn3cc4nc(N)nc(NCCCC)c4n3)c(OC)c2)CC1 [Compound B-3, N-(5-(4-(4-((5-amino-7-(butylamino)-2H-pyrazolo[4,3-d]pyrimidin-2-yl)methyl)-3-methoxyphenyl)piperazin-1-yl)-5-oxopentyl)oleamide]	0.155 µM	0.129 µM
CCCCCCCCCCCCCC(=O)NCCCCC(=O)N1CCN(c2ccc(Cn3cc4nc(N)nc(NCCCC)c4n3)c(OC)c2)CC1 [Compound B-2, N-(5-(4-(4-((5-amino-7-(butylamino)-2H-pyrazolo[4,3-d]pyrimidin-2-yl)methyl)-3-methoxyphenyl)piperazin-1-yl)-5-oxopentyl)tetradecanamide]	0.208 µM	0.306 µM
CCCCC/C=C\C/C=C\CCCCCCCC(=O)NCCCCC(=O)N1CCN(c2ccc(Cn3cc4nc(N)nc(NCCCC)c4n3)c(OC)c2)CC1 [Compound B-4, (9Z,12Z)—N-(5-(4-(4-((5-amino-7-(butylamino)-2H-pyrazolo[4,3-d]pyrimidin-2-yl)methyl)-3-methoxyphenyl)piperazin-1-yl)-5-oxopentyl)octadeca-9,12-dienamide]	0.389 µM	0.389 µM
CCCCCCCCCCCCCCCCCC(=O)NCCCCC(=O)N1CCCN(c2ccc(Cn3cc4nc(N)nc(NCCCC)c4n3)c(OC)c2)CC1 [Compound B-5, N-(5-(4-(4-((5-amino-7-(butylamino)-2H-pyrazolo[4,3-d]pyrimidin-2-yl)methyl)-3-methoxyphenyl)-1,4-diazepan-1-yl)-5-oxopentyl)stearamide]	13.4 µM	4.21 µM
